These results are taken from US20070004660A1, “Synergistic Modulation of Flt3 Kinase Using Alkylquinolines and Alkylquinazolines” (priority 2005, published 2007).

What is called pIC50 is the negative decadic logarithm of the IC50, by convention in mol/L.

For this assay, the system named is MV4-11 cells. Nature of the assay: Inhibition of MV4-11 cell proliferation (CellTiterGlo, 72 h). It counts as cell-based. As to conditions: Homo sapiens; 72 h growth inhibition; uncertainty ±20%.

pIC50: −log10 of the molar value.

With `COc1cc2ncnc(C3CCN(C(=O)Nc4ccc5ncsc5c4)CC3)c2cc1OC` [Example 24, 4-(6,7-Dimethoxy-quinazolin-4-yl)-piperidine-1-carboxylic acid benzothiazol-6-ylamide], the negative logarithm of the IC50 (pIC50) was 5.43.

In turn, `O=C(Nc1ccc(N2CCOCC2)cc1)N1CCC(c2ncnc3cc(N4CC[C@H](O)C4)ccc23)CC1` [Example 128, 4-[7-(3-Hydroxy-pyrrolidin-1-yl)-quinazolin-4-yl]-piperidine-1-carboxylic acid (4-morpholin-4-yl-phenyl)-amide] showed a pIC50 of 7.80.

`CC(C)Oc1ccc(NC(=O)N2CCC(c3ncnc4ccc(N5CCN(C)CC5)cc34)CC2)cc1` [Example 131, 4-[6-(4-Methyl-piperazin-1-yl)-quinazolin-4-yl]-piperidine-1-carboxylic acid (4-isopropoxy-phenyl)-amide] had a pIC50 of 5.55.

Consider `O=C(Nc1ccc(N2CCOCC2)cc1)N1CCC(c2ncnc3cc(N4CCC[C@@H]4CO)ccc23)CC1` [Example 132, (R)-4-[7-(2-Hydroxymethyl-pyrrolidin-1-yl)-quinazolin-4-yl]-piperidine-1-carboxylic acid (4-morpholin-4-yl-phenyl)-amide], for which the pIC50 was 7.48. This pIC50 lies 1.93 log units higher than the previous one.

As to `O=C(Nc1ccc(N2CCOCC2)cc1)N1CCC(c2ncnc3cc(OCCCN4CCOCC4)ccc23)CC1` [Example 133, 4-[7-(3-Morpholin-4-yl-propoxy)-quinazolin-4-yl]-piperidine-1-carboxylic acid (4-morpholin-4-yl-phenyl)-amide], the pIC50 is 7.24.

Turning to `CCN(CC)CCCOc1ccc2c(C3CCN(C(=O)Nc4ccc(N5CCOCC5)cc4)CC3)ncnc2c1` [Example 134, 4-[7-(3-Diethylamino-propoxy)-quinazolin-4-yl]-piperidine-1-carboxylic acid (4-morpholin-4-yl-phenyl)-amide], the negative logarithm of the IC50 (pIC50) was 7.37.

In turn, `CN1CCN(c2ccc3c(C4CCN(C(=O)Nc5ccc(N6CCOCC6)cc5)CC4)ncnc3c2)CC1` [Example 135, 4-[7-(4-Methyl-piperazin-1-yl)-quinazolin-4-yl]-piperidine-1-carboxylic acid (4-morpholin-4-yl-phenyl)-amide] had a pIC50 of 6.90.

In turn, `CCN1CCN(c2ccc3c(C4CCN(C(=O)Nc5ccc(N6CCOCC6)cc5)CC4)ncnc3c2)CC1` [Example 136, 4-[7-(4-Ethyl-piperazin-1-yl)-quinazolin-4-yl]-piperidine-1-carboxylic acid (4-morpholin-4-yl-phenyl)-amide] had a negative logarithm of the IC50 (pIC50) of 6.79.

`O=C(Nc1ccc(N2CCOCC2)cc1)N1CCC(c2ncnc3cc(N4CCN(CCO)CC4)ccc23)CC1` [Example 137, 4-{7-[4-(2-Hydroxy-ethyl)-piperazin-1-yl]-quinazolin-4-yl}-piperidine-1-carboxylic acid (4-morpholin-4-yl-phenyl)-amide] showed a pIC50 of 7.13.

As for `CN1CCCN(c2ccc3c(C4CCN(C(=O)Nc5ccc(N6CCOCC6)cc5)CC4)ncnc3c2)CC1` [Example 138, 4-[7-(4-Methyl-[1,4]diazepan-1-yl)-quinazolin-4-yl]-piperidine-1-carboxylic acid (4-morpholin-4-yl-phenyl)-amide], the pIC50 is 6.66.

Consider `O=C(Nc1ccc(N2CCOCC2)cc1)N1CCC(c2ncnc3cc(N4CCC[C@H]4CO)ccc23)CC1` [Example 139, (S)-4-[7-(2-Hydroxymethyl-pyrrolidin-1-yl)-quinazolin-4-yl]-piperidine-1-carboxylic acid (4-morpholin-4-yl-phenyl)-amide], for which the negative logarithm of the IC50 (pIC50) was 6.41.

In the case of `O=C(Nc1ccc(N2CCOCC2)cc1)N1CCC(c2ncnc3cc(N4CCNCC4)ccc23)CC1` [Example 140, 4-(7-Piperazin-1-yl-quinazolin-4-yl)-piperidine-1-carboxylic acid (4-morpholin-4-yl-phenyl)-amide], the pIC50 was 6.77.

Compound `CC(=O)N1CCN(c2ccc3c(C4CCN(C(=O)Nc5ccc(N6CCOCC6)cc5)CC4)ncnc3c2)CC1` [Example 141, 4-[7-(4-Acetyl-piperazin-1-yl)-quinazolin-4-yl]-piperidine-1-carboxylic acid (4-morpholin-4-yl-phenyl)-amide] showed a negative logarithm of the IC50 (pIC50) of 7.10.

Turning to `CS(=O)(=O)N1CCN(c2ccc3c(C4CCN(C(=O)Nc5ccc(N6CCOCC6)cc5)CC4)ncnc3c2)CC1` [Example 142, 4-[7-(4-Methanesulfonyl-piperazin-1-yl)-quinazolin-4-yl]-piperidine-1-carboxylic acid (4-morpholin-4-yl-phenyl)-amide], the negative logarithm of the IC50 (pIC50) was 7.06.

`CN(C)C(=O)N1CCN(c2ccc3c(C4CCN(C(=O)Nc5ccc(N6CCOCC6)cc5)CC4)ncnc3c2)CC1` [Example 143, 4-{4-[1-(4-Morpholin-4-yl-phenylcarbamoyl)-piperidin-4-yl]-quinazolin-7-yl}-piperazine-1-carboxylic acid dimethylamide] had a pIC50 of 7.41. This pIC50 lies 0.35 log units higher than the previous one.

Compound `CN(C)CC(=O)N1CCN(c2ccc3c(C4CCN(C(=O)Nc5ccc(N6CCOCC6)cc5)CC4)ncnc3c2)CC1` [Example 144, 4-{7-[4-(2-Dimethylamino-acetyl)-piperazin-1-yl]-quinazolin-4-yl}-piperidine-1-carboxylic acid (4-morpholin-4-yl-phenyl)-amide] showed a negative logarithm of the IC50 (pIC50) of 6.93.

Take `O=C(Nc1ccc(N2CCOCC2)cc1)N1CCC(c2ncnc3cc(N4CCOCC4)ccc23)CC1` [Example 145, 4-(7-Morpholin-4-yl-quinazolin-4-yl)-piperidine-1-carboxylic acid (4-morpholin-4-yl-phenyl)-amide]: the pIC50 was 6.86. This pIC50 and that of the compound before are within 0.2 log units of each other.

`CS(=O)(=O)CCNc1ccc2c(C3CCN(C(=O)Nc4ccc(N5CCOCC5)cc4)CC3)ncnc2c1` [Example 146, 4-[7-(2-Methanesulfonyl-ethylamino)-quinazolin-4-yl]-piperidine-1-carboxylic acid (4-morpholin-4-yl-phenyl)-amide] showed a pIC50 of 6.49.

The compound `O=C(Nc1ccc(N2CCCC2)cc1)N1CCC(c2ncnc3cc(OCCN4CCOC4=O)ccc23)CC1` [Example 147, 4-{7-[2-(2-Oxo-oxazolidin-3-yl)-ethoxy]-quinazolin-4-yl}-piperidine-1-carboxylic acid (4-pyrrolidin-1-yl-phenyl)-amide] gave a pIC50 of 7.29.

In the case of `O=C(Nc1ccc(N2CCOCC2)cc1)N1CCC(c2ncnc3cc(OCCN4CCOC4=O)ccc23)CC1` [Example 148, 4-{7-[2-(2-Oxo-oxazolidin-3-yl)-ethoxy]-quinazolin-4-yl}-piperidine-1-carboxylic acid (4-morpholin-4-yl-phenyl)-amide], the negative logarithm of the IC50 (pIC50) was 7.18.

Compound `CN(C)[C@@H]1CCN(c2ccc3c(C4CCN(C(=O)Nc5ccc(N6CCCC6)cc5)CC4)ncnc3c2)C1` [Example 149, (R)-4-[7-(3-Dimethylamino-pyrrolidin-1-yl)-quinazolin-4-yl]-piperidine-1-carboxylic acid (4-pyrrolidin-1-yl-phenyl)-amide] showed a pIC50 of 7.34.

Regarding `CN(C)[C@@H]1CCN(c2ccc3c(C4CCN(C(=O)Nc5ccc(N6CCOCC6)cc5)CC4)ncnc3c2)C1` [Example 150, (R)-4-[7-(3-Dimethylamino-pyrrolidin-1-yl)-quinazolin-4-yl]-piperidine-1-carboxylic acid (4-morpholin-4-yl-phenyl)-amide], the pIC50 was 6.57. Against the preceding compound, the pIC50 is 0.77 log units lower.

Regarding `CN1CCC[C@H]1COc1ccc2c(C3CCN(C(=O)Nc4ccc(N5CCCC5)cc4)CC3)ncnc2c1` [Example 151, (S)-4-[7-(1-Methyl-pyrrolidin-2-ylmethoxy)-quinazolin-4-yl]-piperidine-1-carboxylic acid (4-pyrrolidin-1-yl-phenyl)-amide], the pIC50 is 6.71.

In turn, `O=C(Nc1ccc(N2CCCC2)cc1)N1CCC(c2ncnc3cc(OCCN4CCC[C@H]4CO)ccc23)CC1` [Example 152, (S)-4-{7-[2-(2-Hydroxymethyl-pyrrolidin-1-yl)-ethoxy]-quinazolin-4-yl}-piperidine-1-carboxylic acid (4-pyrrolidin-1-yl-phenyl)-amide] showed a negative logarithm of the IC50 (pIC50) of 7.68.

For the compound `O=C(Nc1ccc(N2CCOCC2)cc1)N1CCC(c2ncnc3cc(OCCN4CCC[C@H]4CO)ccc23)CC1` [Example 153, (S)-4-{7-[2-(2-Hydroxymethyl-pyrrolidin-1-yl)-ethoxy]-quinazolin-4-yl}-piperidine-1-carboxylic acid (4-morpholin-4-yl-phenyl)-amide], the negative-log IC50 (pIC50) is 6.40.

For the compound `CC(=O)N1CC[C@@H](Oc2ccc3c(C4CCN(C(=O)Nc5ccc(N6CCCC6)cc5)CC4)ncnc3c2)C1` [Example 154, (R)-4-[7-(1-Acetyl-pyrrolidin-3-yloxy)-quinazolin-4-yl]-piperidine-1-carboxylic acid (4-pyrrolidin-1-yl-phenyl)-amide], the pIC50 is 7.20.

In turn, `CNC(=O)C1CCN(c2ccc3c(C4CCN(C(=O)Nc5ccc(N6CCCC6)cc5)CC4)ncnc3c2)CC1` [Example 155, 4-[7-(4-Carboxylic acid methylamide-piperidin-1-yl)-quinazolin-4-yl]-piperidine-1-carboxylic acid (4-pyrrolidin-1-yl-phenyl)-amide] showed a pIC50 of 7.89.

As to `CN1CCN(CCOc2ccc3c(C4CCN(C(=O)Nc5ccc(N6CCOCC6)cc5)CC4)ncnc3c2)CC1` [Example 156, 4-{7-[2-(4-Methyl-piperazin-1-yl)-ethoxy]-quinazolin-4-yl}-piperidine-1-carboxylic acid (4-morpholin-4-yl-phenyl)-amide], the negative-log IC50 (pIC50) was 7.13.

Compound `CN1CCN(CCOc2ccc3c(C4CCN(C(=O)Nc5ccc(N6CCCC6)cc5)CC4)ncnc3c2)CC1` [Example 157, 4-{7-[2-(4-Methyl-piperazin-1-yl)-ethoxy]-quinazolin-4-yl}-piperidine-1-carboxylic acid (4-pyrrolidin-1-yl-phenyl)-amide] showed a pIC50 of 8.05.

`CN1CCN(CCCOc2ccc3c(C4CCN(C(=O)Nc5ccc(N6CCCC6)cc5)CC4)ncnc3c2)CC1` [Example 158, 4-{7-[3-(4-Methyl-piperazin-1-yl)-propoxy]-quinazolin-4-yl}-piperidine-1-carboxylic acid (4-pyrrolidin-1-yl-phenyl)-amide]: the negative-log IC50 (pIC50) was 7.96.

With `CN1CCN(c2ccc3c(C4CCN(C(=O)Nc5ccc(N6CCCC6)cc5)CC4)ncnc3c2)CC1` [Example 159, 4-[7-(4-Methyl-piperazin-1-yl)-quinazolin-4-yl]-piperidine-1-carboxylic acid (4-pyrrolidin-1-yl-phenyl)-amide], the pIC50 was 8.22. This pIC50 is 0.26 log units higher than that of the compound before.
